# Test results from patent US9643971B2 (GALLEON PHARMACEUTICALS, INC., priority 2013, dated 2017).
# “Also recorded” adds a separate entry of the source. Counter-ions that a name gives are not always drawn. Like-named read-outs stand apart in the source and are kept apart here.
# What was measured:
# [1] = In vitro metabolic stability in human liver microsomes (HLM); details: for HLM T½: human liver microsomes, 5 μM compound, NADPH, 37° C.; for half-life at 5 μM: both, human
# [2] = rat, microsomes
# anesthetized rat = experiment: Anesthetized rat spirometry screening assay; assay type: in vivo
# Method in brief: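 Rats under urethane (1.5 g/kg i.v., after isoflurane induction) with femoral and tracheal cannulas; compounds given as i.v. bolus at 0.1 and 0.3 mg/kg with formulation-matched vehicle. RR, VT and minute volume from pneumotachometer airflow, in 30 s bins over 6 min post-dose; arterial blood gases taken pre- and 6 min post-dose.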
# in vitro = details: male, rat, microsomes
# [3] = system: rats chronically treated with morphine; experiment: Apnea, ventilation and sleep structure in rats chronically treated with morphine (whole-body plethysmography); assay type: in vivo, Zucker rats; details: oral gavage; for apnea frequency / number of apneas per hr expressed as a percent change from baseline (pre-drug): versus treatment with a vehicle
# Excerpt: The objective of this study was to quantify the effects of selected compounds of this invention on apnea, ventilation and sleep structure in a rat model. The study consisted of two treatment conditions: (1) chronic morphine and test compound administered orally, and (2) chronic morphine and oral vehicle.
# Adult male lean Zucker rats were anesthetized for electroencephalogram (EEG) and electromyogram (EMG) telemeter implantation. At least one week was permitted post-surgery before animals were used further. Morphine sulfate was added to the drinking water of singly housed rats beginning with 0.1 mg/ml morphine and increasing the concentration in increments, so that a final concentration of 0.6 mg/ml was achieved within 2 weeks. All respiratory measurements were made while animals were unrestrained in whole-body plethysmography chambers to permit animals to sleep and move freely. To avoid eliciting withdrawal, morphine water was continuously available during each plethysmography experiment. Minute volume and the number of central sleep apneas (CSA) were measured during all treatment conditions. A period of at least 1 to 1.5 h was permitted for animals to acclimate to the chamber before data collection began. The biopotential telemeters and their receivers were placed directly under the plethysmographic chambers and were used to continuously to capture EEG, EMG, and body temperature signals. Only data collected between the hours of 10 am to 4:30 pm were used in the final analysis to control for the effects of circadian rhythm on breathing.
# Test compound in vehicle or an equivalent volume of vehicle was administered via an oral gavage tube at 12 pm. Data collected between 10 am and 12 pm represented baseline (pre-drug) conditions. Data collected between […] represented post-drug conditions. Analyses of the EEG and EMG waveforms for the purpose of staging sleep-wake behavior in rats as awake, NREM sleep, and REM sleep were based on previous sleep studies involving rodents. Central apneas were defined as a respiratory cycle period that was more than or equal to twice the average cycle period during baseline recordings. Percent time in each sleep-wake state, minute volume, and central sleep apnea counts were compared between treatment groups using a two-way ANOVA (factors: drug treatment and time). Breathing data during wakefulness was not analyzed because movement prevents measurement of accurate volumes when using whole-body plethysmography. When differences were detected with ANOVA, Student-Neuman-Keuls post hoc tests were run for all main effects and interactions. Differences were considered significant when p<0.05. Values are expressed as means±SE.
# [4] = In vitro metabolic stability in rat liver microsomes (RLM)
# [5] = Pharmacokinetic and oral bioavailability in the rat; assay type: in vivo, Sprague-Dawley rats; details: Sprague-Dawley, plasma, oral gavage 10-30 mg/kg vs intravenous bolus 2-5 mg/kg
# Description: Sprague-Dawley rats (200-300 g) were fed a standard laboratory rodent diet and housed in individual cages on a 12-hour light and 12-hour dark cycle with room temperature maintained at 22±3° C. and relative humidity at 50±20%. Rats were fasted overnight before dosing, with food returned after the 6 hour blood samples were obtained. Bedding was removed until after the 6 hour blood samples were obtained. Water was provided ad libitum throughout the study.
# Dosing solution of test compound was prepared in desired oral formulation for oral administration via gavage needle at 10-30 mg/kg (10 mL/kg) to three or four rats. […]
# Plasma samples (incurred study samples, calibration standards, quality controls) were normally prepared as follows. […] Calibration standards were typically prepared in the range of 2 ng/ml to 10 μg/mL for quantitation. […]
# All pharmacokinetic parameters were determined based on a non-compartmental approach using WinNonlin software (Pharsight, Version 5.1). The terminal elimination half-life (t1/2) was calculated as ln2/λz using the slope (λz) from linear regression analysis of the terminal phase of the plasma concentration-time curve on a semi-log scale. […] The systemic plasma clearance (CLp) was calculated as intravenous dose divided by AUCinf. The volume of distribution at steady state (Vss) was determined as the product of CLp and MRT. […]
# physchem = details: organic solvent or mixture, thermodynamic from solid
# Description: A 3 mL vial with a screw cap was charged with 50 mg of the solid salt and 1 mL of a solvent at room temperature. The mixture was heated if necessary to achieve a clear solution, in some examples producing a mixture comprising a clear portion and a melt or incompletely dissolved crystalline material. The hot mixture was cooled to room temperature. […] Solvents evaluated include acetonitrile, methyl ethyl ketone, methyl isobutyl ketone, ethyl acetate, isopropyl acetate, water, heptane, methyl-tert-butyl ether, cyclohexane, toluene, methanol, ethanol, n-propanol, isopropanol, n-butanol, 2-butanol, isoamyl alcohol, and tetrahydrofuran.
# [6] = 2 minute AUC of minute volume increase vs. comparator N-[2,6-di-(n-propylamino)-[1,3]pyrimidin-4-yl]-N,O-dimethyl-hydroxylamine
# [7] = peak minute ventilation increase, urethane-anesthetized rat, i.v. bolus, screening doses 0.1 and 0.3 mg/kg
compound,measurement,setting,value
"C#CCNc1nc(N(C)OC)nc2c(NCCC)nc(N(C)OC)nc12.Cl [Compound 15a, N^2,N^6-Bis(N-methoxy(N-methyl)amino)-N^4-n-propylamino-N^8-prop-2-ynylamino-pyrimido[5,4-d]pyrimidine hydrochloride]",HLM T½,[1],1.52 h
same,RLM T½,[2],0.567 h
same,AUC MV Inc (2 min) (ratio vs. std*),anesthetized rat; [6],0.00 ratio vs. std
same,VE Peak (% Inc.),anesthetized rat; [7],6 % Inc.
"CCCNc1nc(NCC)nc2c(NCCC)nc(NCC)nc12 [Compound 137a, N^2,N^6-Diethyl-N^4,N^8-di-n-propyl-pyrimido[5,4-d]pyrimidine-2,4,6,8-tetraamine]",half-life at 5 μM,in vitro,1.62 h
same,half-life at 5 μM,[1]; liver microsomes,3.78 h
same,minute volume compared to a vehicle-treated group,[3],do not cause increases
same,number of apneas per hr versus vehicle,[3],reduced; also recorded: decreased
same,ventilation per unit time compared to vehicle,[3],did not cause an increase; also recorded: do not cause an increase
same,minute volume compared to a vehicle-treated group,[3]; higher dose,caused an increase
same,minute volume compared to a vehicle-treated group,[3]; low dose,did not cause an increase
same,apnea frequency,[3],reduced; also recorded: decreased
same,number of apneas per hr expressed as a percent change from baseline (pre-drug),[3],reduced; also recorded: decreased
same,AUC MV Inc (2 min) (ratio vs. std*),anesthetized rat; [6],0.88 ratio vs. std
"CCCNc1nc(NCCC(F)(F)F)nc2c(NCCC)nc(NC)nc12 [Compound 39a, hydrochloride]",half-life at 5 μM,"[4]; male, rat, microsomes",2.57 h
same,half-life at 5 μM,[1]; microsomes,3.97 h
same,AUC MV Inc (2 min) (ratio vs. std*),anesthetized rat; [6],0.71 ratio vs. std
"CCCNc1nc(NC2CC2)nc2c(NCCC)nc(NC3CC3)nc12 [Compound 138, N^2,N^6-Dicyclopropyl-N^4,N^8-di-n-propyl-pyrimido[5,4-d]pyrimidine-2,4,6,8-tetraamine]",half-life at 5 μM,in vitro,5.52 h
same,melting point,,210 to 212 °C
same,half-life at 5 μM,[1]; liver microsomes,> 8.33 h
same,AUC MV Inc (2 min) (ratio vs. std*),anesthetized rat; [6],0.53 ratio vs. std
"CCCNc1nc(NC)nc2c(NCCC)nc(NC)nc12.Cl [Compound 4a, N^2,N^6-Dimethyl-N^4,N^8-di-n-propyl-pyrimido[5,4-d]pyrimidine-2,4,6,8-tetraamine hydrochloride]",bioavailability,[5],38%
same,half-life at 5 μM,in vitro,4.55 h
same,melting point,,229 to 232 °C
same,half-life at 5 μM,[1]; liver microsomes,6.85 h
same,AUC MV Inc (2 min) (ratio vs. std*),anesthetized rat; [6],1.28 ratio vs. std
same,duration of increase in minute ventilation,"anesthetized rat; anesthetized rat, i.v. bolus",approximately 2 minutes
same,effect on blood pressure,"anesthetized rat; anesthetized rat, i.v. bolus",negligible effects
same,effect on minute ventilation above baseline values,"anesthetized rat; anesthetized rat, i.v. bolus",increase
same,effect on pulse rate,"anesthetized rat; anesthetized rat, i.v. bolus",negligible effects
same,effect on respiratory rate,"anesthetized rat; anesthetized rat, i.v. bolus",stimulatory effects on respiratory rate primarily
same,dose dependence of effect on minute volume,anesthetized rat; based on a two-minute average,dose-dependent effect
same,effect compared to a reference compound as measured by area-under-curve,"anesthetized rat; minute volume, two-minute average",greater effect
"CCCNc1nc(N2CCOCC2)nc2c(NCCC)nc(NC)nc12 [Compound 41a, N^2-Methyl-N^4N^8-di-n-propyl-6-(morpholin-4-yl)-pyrimido[5,4-d]pyrimidine-2,4,8-triamine]",RLM T½,"[4]; rat liver microsomes, 5 μM compound, NADPH, 37° C.",1.67 h
same,HLM T½,[1],3.12 h
same,AUC MV Inc (2 min) (ratio vs. std*),"anesthetized rat; rat, in vivo",0.36 ratio vs. std
same,VE Peak (% Inc.),"anesthetized rat; rat, in vivo",57 % Inc.
"CCCNc1nc(NC)nc2c(NCCC)ncnc12.Cl [Compound 22a, N^2-Methyl-N^4,N^8-di-n-propylpyrimido[5,4-d]primidine-2,4,8-triamine hydrochloride]",HLM T½,[1],0.35 h
same,RLM T½,[2],0.15 h
same,AUC MV Inc (2 min) (ratio vs. std*),anesthetized rat; [6],0.01 ratio vs. std
same,VE Peak (% Inc.),anesthetized rat; [7],9 % Inc.
"CNc1nc(NCC2CC2)nc2c(NC)nc(NCC3CC3)nc12 [Compound 84, N^2,N^6-Bis-cyclopropylmethyl-N^4,N^8-dimethyl-pyrimido[5,4-d]pyrimidine-2,4,6,8-tetraamine]",melting point,,264 to 268 °C
"CNc1nc(NCC2CC2)nc2c(NC)nc(NCC3CC3)nc12.Cl [Compound 85a, N^2,N^6-Bis-cyclopropylmethyl-N^4,N^8-dimethyl-pyrimido[5,4-d]pyrimidine-2,4,6,8-tetraamine hydrochloride]",half-life at 5 μM,in vitro,6.43 h
same,melting point,,264 to 265 °C
same,half-life at 5 μM,[1]; liver microsomes,6.48 h
same,solubility,physchem; Reflux,> 50 mg/mL
same,solubility,physchem; r.t.,< 50 mg/mL
same,apnea frequency,[3]; hydrochloride,reduced; also recorded: decreased
same,number of apneas per hr expressed as a percent change from baseline (pre-drug),[3]; hydrochloride,reduced; also recorded: decreased
same,minute volume compared to a vehicle-treated group,[3]; hydrochloride,did not cause an increase; also recorded: do not cause increases
same,number of apneas per hr versus vehicle,[3]; hydrochloride,reduced; also recorded: decreased
same,ventilation per unit time compared to vehicle,[3]; hydrochloride,did not cause an increase; also recorded: do not cause an increase
same,AUC MV Inc (2 min) (ratio vs. std*),anesthetized rat; [6],0.51 ratio vs. std
"CCCNc1nc(NC)c2nc(C(=O)O)nc(NC)c2n1 [Compound 108, 4,8-Bis-methylamino-6-n-propylamino-pyrimido[5,4-d]pyrimidine-2-carboxylic acid]",melting point,,218 to 220 °C
same,AUC MV Inc (2 min) (ratio vs. std*),anesthetized rat; [6],0.05 ratio vs. std
"CCCNc1nc(NCCC)c2nc(NCCC)nc(NCCC)c2n1.Cl [Compound 6a, N^2,N^4,N^6,N^8-Tetra-n-propyl-pyrimido[5,4-d]pyrimidine-2,4,6,8-tetraamine hydrochloride]",half-life at 5 μM,in vitro,6.93 h
same,melting point,,208 to 211 °C
same,half-life at 5 μM,[1]; liver microsomes,> 8.33 h
same,AUC MV Inc (2 min) (ratio vs. std*),anesthetized rat; [6],0.54 ratio vs. std
